One data set deals with ST30. Kind of data set: RT-CES cell proliferation inhibition, ST30. It counts as cell-based. As to conditions: Homo sapiens. The text has this: (§1) The biological activity of compounds disclosed herein was monitored and profiled using the Real-Time Cell Electronic Sensing (RT-CES®) system from ACEA Biosciences, Inc. The RT-CES system utilizes cell-substrate impedance technology to monitor cellular behavior inside tissue culture wells in a microtiter plate format. The technology features in the integration of molecular and cell biology with microelectronics and is based on the electronic detection of biological assay process. The details of this cell electronic sensing technology and associated devices, systems and methods of use as described in U.S. provisional application No. 60/379,749, filed on Jul. […]
(§2) For measurement of cell-substrate or cell-electrode impedance using RT-CES technology, microelectrodes having appropriate geometries are fabricated onto the bottom surfaces of microtiter plate or similar device, facing into the wells. […] When there are changes to the biological status of the cells analogue electronic readout signals are measured automatically and in real time, and are converted to digital signals for processing and for analysis. In a RT-CES system, a cell index (arbitrary representation of change in impedance) is automatically derived and provided based on measured electrode impedance values. […]
(§3) To quantify cell status based on the measured cell-electrode impedance, a parameter termed Cell Index is derived. […]

The subject of data set [1] is a number of cancer cell lines (MCF7adr, PC3, KB, KB200, Bcap37). The data set can be described thus: RT-CES time-dependent cell index, a number of cancer cell lines (FIG. 10, 11). It counts as cell-based, human. The following applies: various concentrations.
Excerpt: as §1, §2, §3

Another data set relates to MKN45. The data set can be described thus: RT-CES cell proliferation inhibition, MKN45. It is filed as cell-based. As to conditions: Homo sapiens, MKN-45.
Excerpt: as §1, §2, §3

The subject of a further data set is HT29. The data set can be described thus: RT-CES cell proliferation inhibition, HT29. As to conditions: Homo sapiens, HT-29. It is filed as cell-based.
Excerpt: as §1, §2, §3

In the next data set the test system is SKOV3. Kind of data set: RT-CES cell proliferation inhibition, SKOV3. The following applies: Homo sapiens, SK-OV-3. It counts as cell-based.
Excerpt: as §1, §2, §3

For another data set, the system named is S180 sarcoma. The data set can be described thus: Anti-tumor activity against S180 bearing mouse model. It is filed as in vivo, ICR mice. As to conditions: for Inhibition Rate (%) / Tumor Weight: qd for 9 days; for Body Weight (g) Start: mouse, in vivo. Here is the method:
ACEA100160 (2-(4-ethoxyphenyl)amino-4-(6-methylimidazo[1,2-a]pyrimidin-3-yl)thiazole) and ACEA 100162 (2-(4-ethoxyphenyl)amino-4-(6-methylimidazo[2,1-b]thiazol-5-yl)thiazole) are prepared at concentration of 8 mg/ml in solution containing 20% HP-beta-CD dextrose (D5W). The solvent HP-beta-CD solution is used as a vehicle negative control.
ICR mice, male, 21.4±1.5 g
S180 sarcoma: murine cancer cell line S180.
The malignant ascites model of ICR mouse was induced by S180 cells.
Under a sterilized condition, sacrifice the ICR murine S180 bearing mice, take out of the ascites and dilute with NS to certain cell numbers. Inject 0.2 ml cell suspension (10^6 cells) subcutaneously into the left flank on ICR mice. On the first treatment day before iv or ip, implanted animals are randomly divided into ten groups as following. The drugs were administrated in the schedule of Table 11 respectively. The solvent HP-beta-CD solution is used as a vehicle negative control. Observe clinical signs at least daily.
Tumor weight was recorded. The tumor inhibitory rate was calculated as follows: inhibitory rate=1-Wt/W0, where Wt is the average weight of each drug treatment group and W0 is the average weight of negative control group. Results are given as mean±SD values from n animals. Comparisons between groups were made with Student's two-tailed t test and a P<0.05 was considered significant.

Consider one molecule from patent publication US8252822B2, “Heterocyclic compounds and uses as anticancer agents” (Acea Biosciences, Inc., priority 2007, dated 2012).

pIC50: −log10 of the molar value. Where two headings read alike, the source gives them in different places. Where only a bound is given, the exact number is not on record here.

For the molecule `Br.CCOc1ccc(Nc2nc(-c3c(C)nc4sccn34)cs2)cc1` [Compound 27, 2-(4-ethoxyphenyl)amino-4-(6-methylimidazo[2,1-b]thiazol-5-yl)thiazole], the pIC50 was 7.41 with ST30 (ST30, 24 hrs, read-out: IC50 (24 hr)); 7.37 with ST30 (ST30, 48 hrs, read-out: IC50 (48 hr)); less than 6.70 in the data set on MKN45 (MKN45, 24 hrs, read-out: IC50 (24 hr)); less than 6.70 in the data set with MKN45 (MKN45, 48 hrs, read-out: IC50 (48 hr)); 7.27 in the data set with HT29 (HT29, 24 hrs, read-out: IC50 (24 hr)); 7.23 in the data set with HT29 (HT29, 48 hrs, read-out: IC50 (48 hr)). Besides, the negative logarithm of the IC50 (pIC50) is 7.70 in the data set with SKOV3 (SKOV3, 24 hrs, read-out: IC50 (24 hr)) and 7.94 with SKOV3 (SKOV3, 48 hrs, read-out: IC50 (48 hr)). Besides, the “inhibitory effect on the proliferation of a number of cancer cell lines” value in data set [1] is “exhibited inhibitory effect on the proliferation of a number of cancer cell lines”. The “Inhibition Rate (%)” value in the data set with S180 sarcoma (S180, IP, 40 mg/kg) came to 59.3%; in the data set with S180 sarcoma (S180, IP, 80 mg/kg), 77.2%; with S180 sarcoma (S180, IV, 40 mg/kg), 60.7%. Further, the “Tumor Weight” value is reported as 0.61 ± 0.21 g in the data set on S180 sarcoma (S180, IP, 40 mg/kg); 0.34 ± 0.16 g in the data set on S180 sarcoma (S180, IP, 80 mg/kg); 0.59 ± 0.24 g with S180 sarcoma (S180, IV, 40 mg/kg). The “Body Weight (g) Start” value stood at 20.6 ± 0.4 g in the data set with S180 sarcoma (ip, 40 mg/kg); 21.8 ± 1.5 g in the data set on S180 sarcoma (ip, 80 mg/kg); 21.0 ± 0.4 g with S180 sarcoma (iv, 40 mg/kg).

In general, pIC50 refers to the IC50 on a negative log10 scale, so that one unit is a factor of ten.
